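Interpolation was linear, between the two tested concentrations surrounding the appropriate level; five concentrations were tested over 48 hours in 96-well plates. Abbreviation: GI50, concentration required for 50% inhibition of growth.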 The source made the active and inactive calls. Rule as the data show it: active = GI50 up to about 1.1 µM and inactive = higher.
Experiments:
Assay in all cases: NCI anticancer screen, dose series, 48 h
T47D = tested on: T47D
Malme-3M = tested on: Malme-3M
786-0 = tested on: 786-0
HOP-62 = tested on: HOP-62
SN12C = tested on: SN12C
NCI-H23 = tested on: NCI-H23
U-251 = tested on: U-251
NCI/ADR-RES = tested on: NCI/ADR-RES
HCT-15 = tested on: HCT-15
UO-31 = tested on: UO-31
KM12 = tested on: KM12
K562 = tested on: K562
NCI-H522 = tested on: NCI-H522
UACC-257 = tested on: UACC-257
SK-MEL-28 = tested on: SK-MEL-28
COLO 205 = tested on: COLO 205
SF-268 = tested on: SF-268
PC-3 = tested on: PC-3
MDA-MB-435 = tested on: MDA-MB-435
A498 = tested on: A498

CC1(C)CN=C(Nc2ccc(F)c(Cl)c2)S1
GI50 (T47D): > 100 µM (inactive) | GI50 (Malme-3M): > 100 µM (inactive) | GI50 (786-0): > 100 µM (inactive) | GI50 (HOP-62): > 100 µM (inactive) | GI50 (SN12C): > 100 µM (inactive) | GI50 (NCI-H23): > 100 µM (inactive) | GI50 (U-251): > 100 µM (inactive) | GI50 (NCI/ADR-RES): > 100 µM (inactive) | GI50 (HCT-15): > 100 µM | GI50 (UO-31): > 100 µM (inactive) | GI50 (KM12): > 100 µM (inactive) | GI50 (K562): > 100 µM (inactive) | GI50 (NCI-H522): > 100 µM (inactive) | GI50 (UACC-257): > 100 µM (inactive) | GI50 (SK-MEL-28): > 100 µM (inactive) | GI50 (COLO 205): > 100 µM (inactive) | GI50 (SF-268): > 100 µM (inactive) | GI50 (PC-3): > 100 µM (inactive) | GI50 (MDA-MB-435): > 100 µM (inactive)

CCCCCCCC(=O)O[C@H]1[C@H]2[C@@H](CC1(C)C)C(=O)[C@]13O[C@H]1C(=O)[C@]1(CO1)[C@]23C
GI50 (T47D): 1.05 µM (active) | GI50 (Malme-3M): 3.29 µM (inactive) | GI50 (786-0): 5.07 µM (inactive) | GI50 (HOP-62): 17.5 µM (inactive) | GI50 (SN12C): 4.17 µM (inactive) | GI50 (NCI-H23): 3.46 µM (inactive) | GI50 (U-251): 7.83 µM (inactive) | GI50 (HCT-15): 2.96 µM | GI50 (UO-31): 14.3 µM (inactive) | GI50 (A498): 9.16 µM (inactive) | GI50 (KM12): 7.73 µM (inactive) | GI50 (K562): 0.573 µM (active) | GI50 (NCI-H522): 1.3 µM (inactive) | GI50 (UACC-257): 2.85 µM (inactive) | GI50 (SK-MEL-28): 3.38 µM (inactive) | GI50 (COLO 205): 1.23 µM (inactive) | GI50 (SF-268): 6.01 µM (inactive) | GI50 (PC-3): 17 µM (inactive) | GI50 (MDA-MB-435): 24.2 µM (inactive)

CO/N=C(/C)c1cccc(Nc2nc3ccccc3c3[nH]c4ccccc4c23)c1
GI50 (T47D): 1.84 µM (inactive) | GI50 (786-0): 8.55 µM (inactive) | GI50 (HOP-62): 9.66 µM (inactive) | GI50 (SN12C): 11.5 µM (inactive) | GI50 (NCI-H23): 10.3 µM (inactive) | GI50 (U-251): 13.5 µM (inactive) | GI50 (NCI/ADR-RES): 8.97 µM (inactive) | GI50 (HCT-15): 5.92 µM | GI50 (UO-31): 10.1 µM (inactive) | GI50 (KM12): 3.99 µM (inactive) | GI50 (K562): 5.97 µM (inactive) | GI50 (NCI-H522): 2.99 µM (inactive) | GI50 (UACC-257): 13.3 µM (inactive) | GI50 (COLO 205): 7.33 µM (inactive) | GI50 (SF-268): 12.3 µM (inactive) | GI50 (PC-3): 10.4 µM (inactive) | GI50 (MDA-MB-435): 7.41 µM (inactive)

CCOc1ccc(Nc2nc3c(s2)C(=O)c2ccccc2C3=O)cc1
GI50 (T47D): 13.6 µM (inactive) | GI50 (Malme-3M): 2.77 µM (inactive) | GI50 (786-0): 14.2 µM (inactive) | GI50 (HOP-62): 17.7 µM (inactive) | GI50 (SN12C): 3.76 µM (inactive) | GI50 (NCI-H23): 8.13 µM (inactive) | GI50 (U-251): 7.64 µM (inactive) | GI50 (HCT-15): 2.55 µM | GI50 (UO-31): 14.4 µM (inactive) | GI50 (A498): 15.8 µM (inactive) | GI50 (KM12): 13.7 µM (inactive) | GI50 (K562): 3.36 µM (inactive) | GI50 (NCI-H522): 7.5 µM (inactive) | GI50 (UACC-257): 10.4 µM (inactive) | GI50 (SK-MEL-28): 18.9 µM (inactive) | GI50 (COLO 205): 19.8 µM (inactive) | GI50 (SF-268): 3.63 µM (inactive) | GI50 (PC-3): 5.56 µM (inactive) | GI50 (MDA-MB-435): 1.79 µM (inactive)

O=S(=O)(O)c1ccccc1/N=N\c1ccc(/N=N/c2c(O)ccc3ccccc23)c(S(=O)(=O)O)c1
GI50 (T47D): > 100 µM (inactive) | GI50 (Malme-3M): 19.4 µM (inactive) | GI50 (786-0): > 100 µM (inactive) | GI50 (HOP-62): > 100 µM (inactive) | GI50 (SN12C): > 100 µM (inactive) | GI50 (NCI-H23): > 100 µM (inactive) | GI50 (U-251): > 100 µM (inactive) | GI50 (NCI/ADR-RES): > 100 µM (inactive) | GI50 (HCT-15): > 100 µM | GI50 (UO-31): > 100 µM (inactive) | GI50 (KM12): > 100 µM (inactive) | GI50 (K562): > 100 µM (inactive) | GI50 (NCI-H522): > 100 µM (inactive) | GI50 (UACC-257): > 100 µM (inactive) | GI50 (SK-MEL-28): > 100 µM (inactive) | GI50 (COLO 205): > 100 µM (inactive) | GI50 (SF-268): > 100 µM (inactive) | GI50 (PC-3): > 100 µM (inactive) | GI50 (MDA-MB-435): > 100 µM (inactive)

CN(C)c1ccc(/C=C2\C[C@H]3[C@@H]4CC=C5C[C@@H](O)CC[C@]5(C)[C@H]4CC[C@]3(C)C2=O)cc1
GI50 (T47D): 20.3 µM (inactive) | GI50 (Malme-3M): 19.5 µM (inactive) | GI50 (786-0): 16.3 µM (inactive) | GI50 (HOP-62): 13.2 µM (inactive) | GI50 (SN12C): 20.9 µM (inactive) | GI50 (NCI-H23): 25.6 µM (inactive) | GI50 (U-251): 12.9 µM (inactive) | GI50 (NCI/ADR-RES): 19.1 µM (inactive) | GI50 (HCT-15): 34.5 µM | GI50 (UO-31): 4.55 µM (inactive) | GI50 (A498): 20.9 µM (inactive) | GI50 (KM12): 38.5 µM (inactive) | GI50 (K562): 32.8 µM (inactive) | GI50 (UACC-257): 19.9 µM (inactive) | GI50 (SK-MEL-28): 16.2 µM (inactive) | GI50 (COLO 205): 23.7 µM (inactive) | GI50 (SF-268): 13 µM (inactive) | GI50 (PC-3): 13.4 µM (inactive)

CC(=O)NNC(=S)N/C=C1/C(=O)C=C(C)OC1=O
GI50 (T47D): > 100 µM (inactive) | GI50 (786-0): > 100 µM (inactive) | GI50 (HOP-62): > 100 µM (inactive) | GI50 (SN12C): > 100 µM (inactive) | GI50 (NCI-H23): > 100 µM (inactive) | GI50 (U-251): > 100 µM (inactive) | GI50 (NCI/ADR-RES): > 100 µM (inactive) | GI50 (HCT-15): > 100 µM | GI50 (UO-31): > 100 µM (inactive) | GI50 (KM12): > 100 µM (inactive) | GI50 (UACC-257): > 100 µM (inactive) | GI50 (SK-MEL-28): > 100 µM (inactive) | GI50 (COLO 205): > 100 µM (inactive) | GI50 (PC-3): > 100 µM (inactive) | GI50 (MDA-MB-435): > 100 µM (inactive)

CC1CCC2CC1NC(=O)CCOCCC(=O)NC2(C)C (stereo not drawn)
GI50 (T47D): > 100 µM (inactive) | GI50 (786-0): > 100 µM (inactive) | GI50 (HOP-62): > 100 µM (inactive) | GI50 (SN12C): > 100 µM (inactive) | GI50 (NCI-H23): > 100 µM (inactive) | GI50 (U-251): > 100 µM (inactive) | GI50 (HCT-15): > 100 µM | GI50 (UO-31): > 100 µM (inactive) | GI50 (KM12): > 100 µM (inactive) | GI50 (K562): > 100 µM (inactive) | GI50 (NCI-H522): > 100 µM (inactive) | GI50 (UACC-257): > 100 µM (inactive) | GI50 (SK-MEL-28): > 100 µM (inactive) | GI50 (COLO 205): > 100 µM (inactive) | GI50 (SF-268): > 100 µM (inactive) | GI50 (PC-3): > 100 µM (inactive) | GI50 (MDA-MB-435): > 100 µM (inactive)
